Molecules are shown by their SMILES. A value given as a limit tells only on which side of the number the result lay.

Common to all, as to format: cell-based, human
Assay [1] has as its system mitochondrial O2- in HepG2. The assay is described as follows: Mitochondrial O2- levels, MitoSOX probe, flow cytometry. As to conditions: HepG2, 5 and 10 µM, any of the doses or times assayed. The protocol: The mitochondrial superoxide anion (O2^−) levels were measured using MitoSOX™Red reagent (Molecular Probes, Eugene, OR, USA), which permeates living cells where it selectively targets mitochondria and is oxidized by superoxide.
HepG2 cells were cultured in a 6-well cell culture plate at a density of 2 × 10^5 cells per well 24 h before starting the treatment with R2-viniferin. The medium was renewed and cells were incubated with R2-viniferin as described above. After treatment, cells were washed and incubated with 20 μM H2DCF-DA or 4 μM MitoSOX™ for 30 min at 37 °C in the dark. The probe solution was then withdrawn and, after washing with PBS, the cells were trypsinized. The fluorescence intensity from living cells was measured by flow cytometry (DCF λex = 485/20 and λem = 528/20, MitoSOX λex = 485/20 and λem = 620/20) in a Beckman Coulter Gallios Flow cytometer in the General Research Services SGIker of the UPV/EHU. At least 10,000 events were detected. Data obtained from flow cytometry were analyzed using Summit 4.3 software (Dako, Hovedstaden, Denmark). Intracellular ROS and mitochondrial O2^− were expressed as the percentage of the fluorescence intensity in control cells at the same time of incubation.
On the technique in general: Flow cytometry measures light scatter and fluorescence of single cells or particles in a stream.

Assay [2] deals with HH4. The assay is described as follows: Cell viability, crystal violet assay, HH4 non-transformed hepatocytes. As to conditions: Homo sapiens, Hepatocyte, mean ± standard error. The text has this:
(§1) The human hepatoma cell line HepG2 was obtained from the American Tissue Culture Collection (ATCC, Manassas, VA, USA). The human hepatoma cell line Hep3B was obtained from the European Collection of Authenticated Cell Cultures (ECACC, Porton Down, Salisbury, Wiltshire, UK). HH4 non-transformed human hepatocyte cell line (kindly provided by Dr. I. Fabregat, Molecular Oncology, Bellvitge Biomedical Research Institute, Spain) was established as described.
(§2) HepG2 and Hep3B cell lines were maintained in Eagle’s Minimum Essential Medium and HH4 cell line was grown in Ham´s F12 Nutrient Mixture (Sigma-Aldrich, St Louis, MO, USA). Both culture media were supplemented with 10% heat inactivated fetal bovine serum, 2 mM L-glutamine and antibiotics (0.1 mg/mL streptomycin and 100 U/mL penicillin) (Sigma-Aldrich, St Louis, MO, USA). Cell cultures were grown in an incubator at 37 °C with 5% CO2 atmosphere. After reaching approximately 80% of confluence, cells were detached in a solution of 0.1% trypsin and 0.04% EDTA and plated as required for further experiments.
(§3) Cell lines were seeded into 96-well plates at 5 × 10^3 (HepG2) and 3 × 10^3 (Hep3B and HH4) cells/well 24 h before treatment. Increasing concentrations of the monomer trans-resveratrol, the dimers ampelopsin A and trans-ε-viniferin and the tetramers isohopeaphenol, hopeaphenol, R2-viniferin and R-viniferin were then added and cells were incubated for 24, 48, and 72 h. Stilbenes were dissolved in dimethyl sulfoxide (DMSO), Sigma-Aldrich, St Louis, MO, USA) at a final concentration of 0.01%. The same amount of DMSO was added to control cells. After treatment, the cell viability was determined using the crystal violet assay. The absorbance was recorded at 590 nm in a Synergy HT microplate reader (BioTek, Winooski, VT, USA). Cell viability was calculated as the percentage of viable cells treated with stilbene versus untreated control cells using the following equation: Cell viability (%) = [OD (Treatment) − OD (Blank)]/[OD (Control) − OD (Blank)] × 100. The cytotoxic effect of stilbenes was determined by calculating IC50 values using non-linear regression analysis (GraphPad Prism 6, San Diego, CA, USA).
(§4) The statistical package SPSS 19.0 (SPSS Inc. Chicago, IL, USA) was used for data analysis. The results were expressed as mean ± standard error (SE) from at least three experiments. Statistical significance for the differences of the means was estimated by parametric Student’s t-test. Differences between means were considered statistically significant for p < 0.05. IC50 values were derived from fitting the data to a sigmoidal dose-response curve with a three-parameter logistic model using Graph Pad Prism 6.

For assay [3], the system named is Hep3B. Briefly: Cell viability, crystal violet assay, Hep3B. As to conditions: mean ± standard error.
Description: as §1, §2, §3, §4

Assay [4] deals with HepG2. The assay is described as follows: Cell cycle analysis by flow cytometry (propidium iodide), HepG2. As to conditions: HepG2, 10 µM, mean ± SE. The protocol:
Exponentially growing cells were seeded in 6-wells plates (200,000 cells HepG2 and 180,000 cells Hep3B) 24 h before R2-viniferin treatment. On the day of treatment, the culture medium was replaced with culture medium containing R2-viniferin or vehicle solution (control).
After a treatment, cells were detached by trypsinization and fixed overnight at 4 °C in 70% ice-cold ethanol diluted in phosphate buffer saline (PBS). The ethanol was then discarded and the cells were washed with ice-cold PBS and finally stained with 25 μg/mL of propidium iodide (Sigma-Aldrich, St Louis, MO, USA) in the presence of 200 μg/mL ribonuclease A (Roche Biochemicals, Indianapolis, IN, USA) for 30 min at room temperature in the dark. Flow cytometry analysis (Beckman Coulter Gallios) was carried out from a total number of 10,000 events acquired in the General Research Services SGIker of the UPV/EHU. Analysis of the data was performed using Summit 4.3 software (Dako, Glostrup, Hovedstaden, Denmark).

Assay [5] deals with caspase-3 activity in HepG2. The assay is described as follows: Caspase-3 activity, Ac-DEVD-AMC fluorogenic substrate. The protocol:
The activity of caspase-3 was measured using the specific synthetic tetrapeptide fluorogenic substrate Ac-DEVD-AMC (BD Pharmigen Biosciences, San Diego, CA, USA). The assay was carried out in 96-well plates in a total volume of 100 µL, with 37 μM of the substrate and 50 µg of protein in the assay medium in 100 mM HEPES, pH 7.4, containing 200 mM NaCl, 0.2% CHAPS, 2 mM EDTA, 20% glycerol, and 5 mM dithiothreitol (DTT).
In the presence of caspase-3, the Ac-DEVD-AMC substrate is hydrolyzed and the fluorogenic compound AMC is released. The activity was determined by continuous recording of the fluorescence at λex = 360 nm and λem = 460 nm at 37 °C for 2 h every 5 min in a Synergy HT microplate reader (BioTek, Winooski, VT, USA). Results were expressed as the percentage of the fluorescence in control cells.

Take `Oc1ccc([C@H]2c3c(O)cc(O)cc3[C@H]3c4c(cc(O)cc4[C@@H]2c2cc(/C=C/c4cc(O)cc5c4[C@H](c4cc(O)cc(O)c4)[C@@H](c4ccc(O)cc4)O5)ccc2O)O[C@@H]3c2ccc(O)cc2)cc1` [R2-Viniferin]: in assay [1], the “Effect on mitochondrial O2-” value is “no significant effect”. For the same molecule, the IC50 in assay [2] (24 h) was greater than 200 µM; in assay [2] (48 h), greater than 200 µM; in assay [2] (72 h) it was greater than 200 µM; in assay [3] (72 h), 47.8 ± 2.8 µM; in assay [3] (Homo sapiens, Hep3B, 24 h), greater than 200 µM; in assay [3] (Homo sapiens, Hep3B, 48 h), 43.9 ± 3.6 µM. Also, the IC50 in assay [3] (Homo sapiens, Hep3B, 72 h) was 48 µM. In addition, the “Cell cycle G0/G1 (percentage of cells)” value in assay [4] (24 h) was determined as 65.6 ± 11.7%; in assay [4] (48 h), 71.7 ± 10.9%; in assay [4] (72 h) it was 75.5 ± 7.8%. In addition, the entries for the “Cell cycle G2/M (percentage of cells)” value in assay [4] (24 h), in assay [4] (48 h) and in assay [4] (72 h) were 22.5 ± 8.5%, 19.3 ± 6.5% and 15.0 ± 2.2%, respectively. Also, the results for the “Cell cycle S (percentage of cells)” value in assay [4] (24 h), in assay [4] (48 h) and in assay [4] (72 h) were 11.9 ± 3.2%, 9.0 ± 4.5% and 9.5 ± 5.6%, respectively. In addition, the “SubG0 (percentage of total cells)” value is 8.5 ± 2.7% in assay [4] (24 h), 22.4 ± 11.0% in assay [4] (48 h) and 71.0 ± 2.1% in assay [4] (72 h). The “Effect on caspase-3 activity” value is given as “increased caspase-3 activity at 72 h” in assay [5] (HepG2, 5 µM) and “increased the caspase-3 activity significantly from 24 h to 72 h” in assay [5] (HepG2, 10 µM).

Usually IC50 stands for the point on the concentration scale where inhibition reaches its midpoint.

Values taken from paper PMC7346113, “Screening of Natural Stilbene Oligomers from Vitis vinifera for Anticancer Activity on Human Hepatocellular Carcinoma Cells” (Antioxidants, 2020).
